PubChem BioAssay AID1845200 (Molecular Pharmacology Branch, DTP, NCI, 2023)

Tested on: ASPS-1 complex tumor spheroids, viability
Assay: Anticancer human tumor ASPS-1 cell line growth inhibition;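 note: spheroids exposed to agents for 7 days after 3 days of growth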;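 for viability, T/C: 100% = DMSO vehicle treated spheroids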
Settings: for IC50: curve of first compound; for viability, T/C: stronger effect = lower value
Procedure, shortened: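 Complex spheroids of malignant cells with endothelial cells and mesenchymal stem cells; agents alone or combined, from near clinical Cmax (or 10 microM if unknown) down in half-log steps, 0.25% DMSO final.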

Question: Which results are given for `CC1COCCN1c1cc(-c2ccnn2C)c2ccnc(-c3ccn[nH]3)c2n1` (stereo not given) + CC[C@@]1(O)C(=O)OCc2c1cc1n(c2=O)Cc2cc3c(CN(C)C)c(O)ccc3nc2-1?
Answer: IC50 (second compound 0.003 µM): 224 nM; IC50 (second compound 0.00949 µM): 60.8 nM; IC50 (second compound 0.03 µM): < 31.6 nM; IC50 (second compound 0.0949 µM): < 31.6 nM; IC50 (second compound 0.3 µM): < 31.6 nM; viability, T/C (second compound 0.003 µM, first compound 0.0316 µM): 73.9%; viability, T/C (second compound 0.003 µM, first compound 0.1 µM): 59.1%; viability, T/C (second compound 0.003 µM, first compound 0.316 µM): 46.2%; viability, T/C (second compound 0.003 µM, first compound 1 µM): 44.5%; viability, T/C (second compound 0.003 µM, first compound 3.16 µM): 47.8%; viability, T/C (second compound 0.003 µM, first compound 10 µM): 43.5%; viability, T/C (second compound 0.00949 µM, first compound 0.0316 µM): 56.9%; viability, T/C (second compound 0.00949 µM, first compound 0.1 µM): 48.7%; viability, T/C (second compound 0.00949 µM, first compound 0.316 µM): 39.9%; viability, T/C (second compound 0.00949 µM, first compound 1 µM): 40.1%; viability, T/C (second compound 0.00949 µM, first compound 3.16 µM): 46.8%; viability, T/C (second compound 0.00949 µM, first compound 10 µM): 42.3%; viability, T/C (second compound 0.03 µM, first compound 0.0316 µM): 38.7%; viability, T/C (second compound 0.03 µM, first compound 0.1 µM): 35.1%; viability, T/C (second compound 0.03 µM, first compound 0.316 µM): 35.8%; viability, T/C (second compound 0.03 µM, first compound 1 µM): 39.6%; viability, T/C (second compound 0.03 µM, first compound 3.16 µM): 42.1%; viability, T/C (second compound 0.03 µM, first compound 10 µM): 42.5%; viability, T/C (second compound 0.0949 µM, first compound 0.0316 µM): 26.7%; viability, T/C (second compound 0.0949 µM, first compound 0.1 µM): 26.5%; viability, T/C (second compound 0.0949 µM, first compound 0.316 µM): 28.7%; viability, T/C (second compound 0.0949 µM, first compound 1 µM): 34.1%; viability, T/C (second compound 0.0949 µM, first compound 3.16 µM): 41.9%; viability, T/C (second compound 0.0949 µM, first compound 10 µM): 36.4%; viability, T/C (second compound 0.3 µM, first compound 0.0316 µM): 23.3%; viability, T/C (second compound 0.3 µM, first compound 0.1 µM): 23.2%; viability, T/C (second compound 0.3 µM, first compound 0.316 µM): 23.5%; viability, T/C (second compound 0.3 µM, first compound 1 µM): 33.8%; viability, T/C (second compound 0.3 µM, first compound 3.16 µM): 44.6%; viability, T/C (second compound 0.3 µM, first compound 10 µM): 38.6%

Question: Which IC50 (second compound 30 pM) does the source give for `Cc1sc2c(c1C)C(c1ccc(Cl)cc1)=NC(CC(=O)Nc1ccc(O)cc1)c1nnc(C)n1-2` (stereo not given) + COc1cc2c(cc1O)CCNC21CSC2c3c(OC(C)=O)c(C)c4c(c3C(COC1=O)N1C(O)C3Cc5cc(C)c(OC)c(O)c5C(C21)N3C)OCO4 here?
Answer: > 3000 nM

Question: And the IC50 (second compound 94.9 pM)?
Answer: > 3000 nM

Question: What about the IC50 (second compound 0.0003 µM) of the same molecule?
Answer: > 3000 nM

Question: What about the IC50 (second compound 0.000949 µM) of the same molecule?
Answer: 772 nM

Question: And the IC50 (second compound 0.003 µM)?
Answer: < 9.49 nM

Question: And the viability, T/C (second compound 30 pM, first compound 0.00949 µM)?
Answer: 109%

Question: And the viability, T/C (second compound 30 pM, first compound 0.03 µM)?
Answer: 112%

Question: And the viability, T/C (second compound 30 pM, first compound 0.0949 µM)?
Answer: 113%

Question: And the viability, T/C (second compound 30 pM, first compound 0.3 µM)?
Answer: 103%

Question: What about the viability, T/C (second compound 30 pM, first compound 0.949 µM) of the same molecule?
Answer: 94%

Question: And the viability, T/C (second compound 30 pM, first compound 3 µM)?
Answer: 83%

Question: What about the viability, T/C (second compound 94.9 pM, first compound 0.00949 µM) of the same molecule?
Answer: 106%

Question: What about the viability, T/C (second compound 94.9 pM, first compound 0.03 µM) of the same molecule?
Answer: 107%

Question: And the viability, T/C (second compound 94.9 pM, first compound 0.0949 µM)?
Answer: 109%

Question: And the viability, T/C (second compound 94.9 pM, first compound 0.3 µM)?
Answer: 103%

Question: And the viability, T/C (second compound 94.9 pM, first compound 0.949 µM)?
Answer: 93.4%

Question: What about the viability, T/C (second compound 94.9 pM, first compound 3 µM) of the same molecule?
Answer: 70.2%

Question: What about the viability, T/C (second compound 0.0003 µM, first compound 0.00949 µM) of the same molecule?
Answer: 102%

Question: And the viability, T/C (second compound 0.0003 µM, first compound 0.03 µM)?
Answer: 110%

Question: What about the viability, T/C (second compound 0.0003 µM, first compound 0.0949 µM) of the same molecule?
Answer: 103%

Question: And the viability, T/C (second compound 0.0003 µM, first compound 0.3 µM)?
Answer: 97.1%

Question: What about the viability, T/C (second compound 0.0003 µM, first compound 0.949 µM) of the same molecule?
Answer: 85.2%

Question: What about the viability, T/C (second compound 0.0003 µM, first compound 3 µM) of the same molecule?
Answer: 72.4%

Question: What about the viability, T/C (second compound 0.000949 µM, first compound 0.00949 µM) of the same molecule?
Answer: 81.6%

Question: What about the viability, T/C (second compound 0.000949 µM, first compound 0.03 µM) of the same molecule?
Answer: 94.7%

Question: And the viability, T/C (second compound 0.000949 µM, first compound 0.0949 µM)?
Answer: 88.7%

Question: What about the viability, T/C (second compound 0.000949 µM, first compound 0.3 µM) of the same molecule?
Answer: 76.9%

Question: And the viability, T/C (second compound 0.000949 µM, first compound 0.949 µM)?
Answer: 44.3%

Question: And the viability, T/C (second compound 0.000949 µM, first compound 3 µM)?
Answer: 26.3%

Question: And the viability, T/C (second compound 0.003 µM, first compound 0.00949 µM)?
Answer: 24.1%

Question: And the viability, T/C (second compound 0.003 µM, first compound 0.03 µM)?
Answer: 24.6%

Question: And the viability, T/C (second compound 0.003 µM, first compound 0.0949 µM)?
Answer: 29.2%

Question: And the viability, T/C (second compound 0.003 µM, first compound 0.3 µM)?
Answer: 20.9%

Question: What about the viability, T/C (second compound 0.003 µM, first compound 0.949 µM) of the same molecule?
Answer: 9.4%

Question: What about the viability, T/C (second compound 0.003 µM, first compound 3 µM) of the same molecule?
Answer: 1.27%
